The values below come from patent US20150297490A1, “COMPOSITIONS, USES AND METHODS FOR TREATING OR PREVENTING DENTAL CARIES” (APOLLONIA HEALTH INC., priority 2012, published 2015).

For this test, the system named is S. mutans UA159. Description: pH of culture medium of S. mutans biofilms after 1 minute incubation with test treatments. The class given is cell-based, Streptococcus mutans. To be noted: for pH of the medium, Average: average of samples; for pH of the medium: individual samples 1-4; for drop in pH of the medium (initial pH minus pH at 6 or 8 hours): 6 and 8 hours after treatment, FIGS. 2 and 3; for statistical significance of pH results compared to the water control: p<0.05. From the text:
Amongst acidogenic bacteria, S. mutans is the principal etiological agent of caries in humans. Since there is a strong correlation between the proportion of S. mutans in dental plaque or in saliva relative to other bacterial species and the presence or risk of future outbreaks of dental caries, S. mutans in plaque or saliva may serve as an index for both dental caries activity state and dental caries risk or susceptibility. S. mutans UA159 strain was used in this Example.
On the first day, biofilm growth was initiated by inoculating 10 mL of 100% Todd-Hewitt broth (THYE) with 0.3% yeast extract at a pH of 7.0 with UA159 to prepare overnight cultures. The samples were incubated in closed screw-cap tubes without agitation at 37° C. in an anaerobic chamber (5% CO2).
On the second day, 1:100 dilutions were prepared by mixing 20 pl of the overnight UA159 cultures with ¼ THYE with 0.075% yeast extract supplemented with 0.1% sucrose to reach a final volume of 2 mL. The dilutions were then placed into the wells of 12-well plates.
On the third day, the 2 mL of medium was removed from each well. 1.0 mL of test treatment solution, as described below, was added to each well, after which the wells were incubated for 1 minute on the bench at room temperature. Next, the test treatment solutions were removed, and 3.0 mL of undiluted THYE with 0.3% yeast extract and no sucrose was added to each well.
If an internal pH control was required, fresh THYE was also added to two un-inoculated wells. During these steps, care was taken to avoid disrupting the biofilm.
Immediately after 100% THYE with 0.3% yeast extract was added to the wells following incubation with the test treatments, the initial pH of the medium in each well was measured. Samples were incubated at 37° C. in an open air, bench-top incubator, and the pH of the medium was measured once an hour for the next 7-8 hours. Finally, the pH of the medium in each well was measured again the next morning.

Where “and” joins values, the source holds several entries; their conditions need not be identical. Equal entries are not always repeated.

On to `O=C([O-])O.[Na+]` [Sodium Bicarbonate, Sodium bicarbonate], for which the “drop in pH of the medium (initial pH minus pH at 6 or 8 hours)” value was “little to no effect on the drop in pH” and the “statistical significance of pH results compared to the water control” value is on record as “statistically significant difference at 1 hour”. Where the note is “0 hours after treatment”, the “pH of the medium, Average” value was 7.51; the “pH of the medium” value was 7.48 and 7.39 and 7.58 and 7.59. For the same compound, for the setting “1 hour after treatment”, the “pH of the medium, Average” value came to 7.07; the “pH of the medium” value was 7.09 and 6.97 and 7.1 and 7.12. Moreover, under “2 hours after treatment”, the “pH of the medium, Average” value is 6.84; the “pH of the medium” value was 6.67 and 6.81 and 6.93 and 6.96. In addition, where the note is “3 hours after treatment”, the “pH of the medium, Average” value was found to be 6.52; the “pH of the medium” value is 5.85 and 6.6 and 6.82 and 6.81. Besides, where the note is “4 hours after treatment”, the “pH of the medium, Average” value is 6.08; the “pH of the medium” value is 5.08 and 6.21 and 6.49 and 6.53. Moreover, for the setting “5 hours after treatment”, the “pH of the medium, Average” value was 5.69; the “pH of the medium” value is 5.03 and 5.7 and 5.97 and 6.06. In addition, under “6 hours after treatment”, the “pH of the medium, Average” value is listed as 5.22; the “pH of the medium” value is 5 and 5.11 and 5.33 and 5.42. In addition, under “7 hours after treatment”, the “pH of the medium, Average” value stood at 5.01; the “pH of the medium” value was 5 and 4.96 and 5.01 and 5.06. Further, for the setting “8 hours after treatment”, the “pH of the medium, Average” value was found to be 5.00; the “pH of the medium” value was 5.06 and 4.96 and 4.97.

Take `O.O.O=C([O-])CC(O)(CC(=O)[O-])C(=O)[O-].[Na+].[Na+].[Na+]` [Sodium Citrate, Sodium citrate dihydrate]: the “drop in pH of the medium (initial pH minus pH at 6 or 8 hours)” value is reported as “little to no effect on the drop in pH” and the “statistical significance of pH results compared to the water control” value is listed as “no statistically significant difference at any time”. Further, the “pH of the medium, Average” value (0 hours after treatment) was found to be 7.50. The “pH of the medium” value (0 hours after treatment, citrate dihydrate) is 7.5 and 7.35 and 7.57 and 7.58. Besides, the “pH of the medium, Average” value (1 hour after treatment) is recorded as 7.05. For the same compound, the “pH of the medium” value (1 hour after treatment, citrate dihydrate) is 7.05 and 6.93 and 7.09 and 7.12. Moreover, the “pH of the medium, Average” value (2 hours after treatment) was 6.83. The “pH of the medium” value (2 hours after treatment, citrate dihydrate) was 6.69 and 6.75 and 6.91 and 6.95. Besides, under “3 hours after treatment”, the “pH of the medium, Average” value was found to be 6.50. Moreover, under “3 hours after treatment, citrate dihydrate”, the “pH of the medium” value was 6.01 and 6.47 and 6.76 and 6.77. The “pH of the medium, Average” value (4 hours after treatment) stood at 6.00. For the setting “4 hours after treatment, citrate dihydrate”, the “pH of the medium” value is 5.14 and 5.94 and 6.44 and 6.48. Moreover, the “pH of the medium, Average” value (5 hours after treatment) stood at 5.64. The “pH of the medium” value (5 hours after treatment, citrate dihydrate) is 5.02 and 5.49 and 5.96 and 6.07. Besides, where the note is “6 hours after treatment”, the “pH of the medium, Average” value is reported as 5.22. Besides, under “6 hours after treatment, citrate dihydrate”, the “pH of the medium” value was 4.98 and 5.06 and 5.36 and 5.46. Moreover, the “pH of the medium, Average” value (7 hours after treatment) was found to be 5.00. Besides, the “pH of the medium” value (7 hours after treatment, citrate dihydrate) was 4.97 and 4.92 and 5.04 and 5.07. For the same compound, where the note is “8 hours after treatment”, the “pH of the medium, Average” value worked out at 4.97. For the same compound, the “pH of the medium” value (8 hours after treatment, citrate dihydrate) was 4.99 and 4.95 and 4.96.

`OC[C@@H](O)[C@H](O)[C@@H](O)CO` [Xylitol]: the “drop in pH of the medium (initial pH minus pH at 6 or 8 hours)” value is “able to slow the pH drop”; the “statistical significance of pH results compared to the water control” value is “statistically significant difference at 1, 6, 7, and 8 hours”. Where the note is “0 hours after treatment”, the “pH of the medium, Average” value was found to be 7.50; the “pH of the medium” value is 7.49 and 7.36 and 7.58 and 7.57. Further, where the note is “1 hour after treatment”, the “pH of the medium, Average” value is on record as 7.08; the “pH of the medium” value was 7.08 and 7 and 7.12 (2×). Under “2 hours after treatment”, the “pH of the medium, Average” value is given as 6.87; the “pH of the medium” value is 6.72 and 6.82 and 6.97 (2×). Moreover, under “3 hours after treatment”, the “pH of the medium, Average” value was determined as 6.58; the “pH of the medium” value is 6.19 and 6.57 and 6.77 and 6.8. Besides, under “4 hours after treatment”, the “pH of the medium, Average” value was found to be 6.27; the “pH of the medium” value was 5.77 and 6.17 and 6.55 and 6.57. Also, under “5 hours after treatment”, the “pH of the medium, Average” value was found to be 6.00; the “pH of the medium” value is 5.51 and 5.93 and 6.25 and 6.29. Besides, under “6 hours after treatment”, the “pH of the medium, Average” value turned out to be 5.72; the “pH of the medium” value was 5.23 and 5.55 and 6.05 and 6.06. Also, where the note is “7 hours after treatment”, the “pH of the medium, Average” value is reported as 5.52; the “pH of the medium” value is 5.1 and 5.37 and 5.78 and 5.82. For the same compound, under “8 hours after treatment”, the “pH of the medium, Average” value was 5.45; the “pH of the medium” value was 5.09 and 5.58 and 5.68.
